PMC3435281 (PLoS ONE, 2012)

Columns and labels:
[1] = tested on: AHR^fxneo/fxneo and AHR^fxneo/+ pups; assay: In utero exposure, closure of ductus venosus (DV); type: in vivo, mouse; settings: dams 110 mg/kg i.p. at E18.5, examined at 4 weeks
Description: We have previously shown that genetically altered mice that express only 10% of the AHR display a patent ductus venosus (DV) in the liver in nearly all cases. We additionally identified that in utero activation of the receptor in the hypomorphs with TCDD successfully closed the DV [5]. […] At 4 weeks of age, the pups were sacrificed, and DV status was examined by hepatic perfusion with trypan blue.
Timed mating of female AHR^fxneo/+ mice to male AHR^fxneo/fxneo mice was performed. […] When the pups were 4 weeks of age, the status of the DV was determined by hepatic perfusion with Trypan Blue as previously described. Briefly, each mouse was anesthetized and its liver was flushed with PBS through the cannulated portal vein. […] Trypan blue was injected through the portal vein until the liver visibly turned blue (in the case of a closed DV) or until the dye was seen exiting the IVC without perfusing the liver (when the DV is open).

[2] = tested on: C57BL/6J mice (AHR^b); assay: In vivo hepatic microsomal EROD activity, C57BL/6J; parameters: species or system mouse; settings: oral 30, 80 or 120 mg/kg, 48 hours
Description: (§1) We utilized the wild type rat hepatoma cell line, 5L, which harbors the high affinity AHR isoform, and our newly created AHR^d-15 cell line. […] Groups of control mice were given corn oil alone or BNF at the concentration of 120 mg/kg.
(§2) Figure 3 In Vitro dose response curves. A. Rat hepatoma cell lines bearing the murine AHR^d (AHR^d-15) or the rat AHR^b (5L) were incubated with increasing doses of TCDD in 96-well plates. After 40 hours, EROD activity was performed from whole cell lysate. (n = 3). […] (n = 3). C. Same assay as in A, with increasing doses of BNF. (n = 2). […] Following 48 hours, hepatic microsomal proteins were isolated and used for the assessment of EROD activity. Animals were treated in groups of 4. Error bars: S.D.
(§3) Hepatic microsomes were prepared by homogenizing 0.5 g of liver tissue in 5 mL of MENG buffer (25 mM buffer sodium morpholinopropane sulfonate buffer (pH 7.5) containing 0.025% (w/v) NaN3, 1 mM EGTA and 10% (v/v) glycerol). The homogenate was subjected to centrifugation at 10,000×g for 20 minutes, followed by centrifugation of the supernatant for 1 hour at 100,000×g and 4°C. The pellet was dissolved in 15 mM Tris-HCl buffer containing 250 mM sucrose (pH 8.0) and aliquots were stored at −80°C. Protein concentration was determined using the Bicinchoninic Acid Protein Assay Reagent (Pierce Biotechnology, Rockford, IL). […]

[3] = tested on: DBA/2J mice (AHR^d); assay: In vivo hepatic microsomal EROD activity, DBA/2J; parameters: species or system mouse; settings: oral 30, 80 or 120 mg/kg, 48 hours
Description: as §1, §2, §3

[4] = tested on: naïve CD4^+ T cells; assay: Naïve CD4+ T cells with TGF-β, flow cytometry of FoxP3 and CD39; type: cell-based, mouse; settings: TGF-β 2 ng/ml with SU5416 250 nM, day 3
Excerpt: An important role for the AHR in the immune system, and specifically T-cell differentiation, has been recognized and continues to be characterized in the literature, [7]. Some ligands of the AHR have the ability to enhance Treg differentiation from naïve T-cells (TCDD, kynurenine), while others direct differentiation towards Th17 effector cells (FICZ). […] IDO has long been known to play a role in Treg generation, and may be central to the mechanism of Dendritic Cell (DC)-directed Treg generation. We as well as others have previously shown that IDO mRNA can be induced by ligands of the AHR, and that the mechanisms of IDO-directed Treg generation may depend on the AHR [25]. […] As described in the Methods, naïve T-cells were sorted using magnetic bead separation, and placed in culture for 5 days with allogeneic pDCs separated from BALB/C mice. […]
A. Spleens were harvested from mice and processed in the standard fashion. […] Same assay as A, but mRNA for CYP1B1 and IDO were measured. […] Same assay as in C, but IDO mRNA was assessed. * - p≤0.05. * - p≤0.01. […]
Naive CD4^+ T cells were isolated using the CD4^+ CD62L Isolation Kit (Miltenyi Biotec, Auburn, CA) and an autoMACS. […] For quantitative PCR (qPCR) analysis, 2–5 × 10^5 cells were cultured in each well of a 96-well round-bottom plate coated with 0.5 µg/ml anti-CD3 and anti-CD28 overnight and then washed with PBS twice before seeding the cells. […]

[5] = tested on: AHR^d; parameters: method as in PMID 16242735; settings: cited from earlier work

Compound	closed DV, percent of pups ([1]; AHR^fxneo/+ pups) [%]	closed DV, percent of pups ([1]; AHR^fxneo/fxneo pups) [%]	hepatic EROD activity [2]	hepatic EROD activity [3]	CD39 in the FoxP3^+ T cells [4]	FoxP3 protein expression by flow cytometry [4]	binding affinity of AHR^d relative to AHR^b [5]
Cc1cc(C)c(C=C2C(=O)Nc3ccccc32)[nH]1 [SU5416, 3-(3,5-dimethyl-1H-pyrrol-2-ylmethylene)-1,3-dihydro-indole-2-one]	100	59	dose-dependent increase	dose-dependent increase	upregulated	significantly enhanced	–
Clc1cc2c(cc1Cl)Oc1cc(Cl)c(Cl)cc1O2 [TCDD, 2,3,7,8-tetrachlorodibenzo-p-dioxin]	–	–	–	–	–	–	one-fifteenth to one-twentieth
